Source: paper PMC7594054, “Design, Synthesis and In Vitro Experimental Validation of Novel TRPV4 Antagonists Inspired by Labdane Diterpenes” (Marine Drugs, 2020)
Entries after “also recorded” stand apart in the source; their conditions may differ. Read-outs that look alike come from different tables or passages of the source.

How the values were obtained:
rTRPV4 = target: T1, rTRPV4 (Rattus norvegicus, UniProt Q9ERZ8); assay: TRPV4 calcium influx assay (Fluo-4) in HEK-293 cells overexpressing rat recombinant TRPV4; assay type: cell-based; conditions: for IC50: against the effect of GSK1016790A (10 nM) after a 5-min pre-incubation, read-out: IC50 inh. TRPV4; for Efficacy %: as percent of the effect of ionomycin (4 µM), HEK-293 cells overexpressing rTRPV4, means ± SEM, n >= 3
T1 construct: expressed in transfected cells; host or cells: HEK-293
T1 sequence (Q9ERZ8 whole entry): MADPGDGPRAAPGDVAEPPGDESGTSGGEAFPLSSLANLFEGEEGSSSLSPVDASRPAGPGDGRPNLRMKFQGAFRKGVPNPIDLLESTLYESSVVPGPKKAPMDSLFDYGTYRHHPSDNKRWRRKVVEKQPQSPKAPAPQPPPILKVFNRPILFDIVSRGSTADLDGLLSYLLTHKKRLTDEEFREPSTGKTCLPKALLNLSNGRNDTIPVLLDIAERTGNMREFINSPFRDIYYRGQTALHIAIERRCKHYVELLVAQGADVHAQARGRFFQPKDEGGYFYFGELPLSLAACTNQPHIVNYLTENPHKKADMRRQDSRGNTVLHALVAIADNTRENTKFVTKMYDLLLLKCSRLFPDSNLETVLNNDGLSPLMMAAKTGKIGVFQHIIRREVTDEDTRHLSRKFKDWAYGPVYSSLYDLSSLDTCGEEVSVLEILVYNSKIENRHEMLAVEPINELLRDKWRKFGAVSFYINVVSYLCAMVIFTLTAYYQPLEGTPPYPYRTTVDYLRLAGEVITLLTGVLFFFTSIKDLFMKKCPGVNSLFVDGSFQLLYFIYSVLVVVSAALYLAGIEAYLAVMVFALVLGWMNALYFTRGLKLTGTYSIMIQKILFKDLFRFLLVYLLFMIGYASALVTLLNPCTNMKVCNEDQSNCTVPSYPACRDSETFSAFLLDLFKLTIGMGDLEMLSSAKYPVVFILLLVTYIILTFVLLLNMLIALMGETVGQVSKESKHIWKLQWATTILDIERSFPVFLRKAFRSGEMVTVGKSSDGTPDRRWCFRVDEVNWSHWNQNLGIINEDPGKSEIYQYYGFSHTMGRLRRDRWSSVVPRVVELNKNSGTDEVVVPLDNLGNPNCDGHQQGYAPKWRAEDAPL
Description: The interaction properties of all homodrimane-derived compounds 1–16, 18–19, and 22–25 with either TRPV type-4 or type-1 were studied in human embryonic kidney (HEK)-293 cells overexpressing either the rat recombinant type-4 (rTRPV4), which shares with the human orthologue ~95% of sequence identity, and the human recombinant type-1 (hTRPV1) channel, evaluating the changes in intracellular calcium levels. […] Cell fluorescence before and after the addition of various concentrations of test compounds was measured normalizing the effects against the response to ionomycin (4 μM). […] Dose-response curve fitting (sigmoidal dose-response variable slope) and parameter estimation were performed with Graph-Pad Prism8® (GraphPad Software Inc., San Diego, CA, USA). All determinations were performed at least in triplicate.

hTRPV1 = target: T2, hTRPV1 (Homo sapiens, UniProt Q8NER1); assay: TRPV1 calcium influx assay (Fluo-4) in HEK-293 cells overexpressing human recombinant TRPV1; assay type: cell-based; conditions: for Efficacy %: as percent of the effect of ionomycin (4 µM), HEK-293 cells overexpressing hTRPV1, means ± SEM, N >= 3; for IC50: read-out: IC50 inh TRPV1; for EC50: activation, NA = not active (efficacy lower than 10%), read-out: Potency EC50
T2 construct: expressed in transfected cells; host or cells: HEK-293
T2 sequence (Q8NER1 whole entry): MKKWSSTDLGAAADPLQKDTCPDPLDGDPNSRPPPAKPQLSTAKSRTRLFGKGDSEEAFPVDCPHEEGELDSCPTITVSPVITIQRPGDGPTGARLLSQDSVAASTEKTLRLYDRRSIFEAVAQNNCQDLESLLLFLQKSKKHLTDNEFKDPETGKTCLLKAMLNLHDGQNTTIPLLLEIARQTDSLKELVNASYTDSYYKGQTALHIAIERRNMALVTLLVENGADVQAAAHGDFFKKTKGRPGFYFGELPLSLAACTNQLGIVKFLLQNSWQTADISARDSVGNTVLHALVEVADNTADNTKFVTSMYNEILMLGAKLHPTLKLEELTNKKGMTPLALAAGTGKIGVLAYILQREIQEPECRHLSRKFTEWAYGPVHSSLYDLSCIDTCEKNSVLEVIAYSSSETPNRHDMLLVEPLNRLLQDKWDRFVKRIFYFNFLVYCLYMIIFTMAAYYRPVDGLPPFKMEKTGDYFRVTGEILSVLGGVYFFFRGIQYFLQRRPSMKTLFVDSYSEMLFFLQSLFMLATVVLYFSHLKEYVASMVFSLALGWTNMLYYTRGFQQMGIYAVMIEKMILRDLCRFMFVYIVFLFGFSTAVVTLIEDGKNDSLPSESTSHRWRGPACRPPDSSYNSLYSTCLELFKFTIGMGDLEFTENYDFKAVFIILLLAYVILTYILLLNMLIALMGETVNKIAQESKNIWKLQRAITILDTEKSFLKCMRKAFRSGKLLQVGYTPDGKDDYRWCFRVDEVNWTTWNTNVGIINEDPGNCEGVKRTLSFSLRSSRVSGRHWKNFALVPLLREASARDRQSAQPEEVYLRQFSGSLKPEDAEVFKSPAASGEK

[1] = activation, half-maximal increase in [Ca2+]i, NA = not active (efficacy lower than 10%), read-out: Potency EC50

Compound	IC50 (rTRPV4) [µM]	Efficacy % (rTRPV4) [%]	Efficacy % (hTRPV1) [%]	IC50 (hTRPV1) [µM]	activity on rTRPV4 in words (rTRPV4)	EC50 (rTRPV4; [1]) [nM]	EC50 (hTRPV1) [µM]	melting point [°C]	activity on hTRPV1 in words (hTRPV1)	EC50 (rTRPV4) [nM]
CC1(C)CCC[C@]2(C)[C@@H](CC(=O)Nc3ccccc3)[C@](C)(O)CC[C@@H]12 [Compound 1, 2-((1R,2R,4aS,8aS)-2-Hydroxy-2,5,5,8a-tetramethyldecahydronaphthalen-1-yl)-N-phenylacetamide]	> 100	<10	33.6 ± 0.8	> 100	–	–	–	–	–	–
CC1(C)CCC[C@]2(C)[C@@H](CC(=O)Nc3cc(F)ccc3F)[C@](C)(O)CC[C@@H]12 [Compound 2, N-(2,5-difluorophenyl)-2-((1R,2R,4aS,8aS)-2-hydroxy-2,5,5,8a-tetramethyldecahydronaphthalen-1-yl)acetamide]	> 100	<10	–	> 100	–	–	–	–	–	–
CC1(C)CCC[C@]2(C)[C@@H](CC(=O)NCc3ccccc3)[C@](C)(O)CC[C@@H]12 [Compound 4, N-benzyl-2-((1R,2R,4aS,8aS)-2-hydroxy-2,5,5,8a-tetramethyldecahydronaphthalen-1-yl)acetamide]	32 ± 0.8	<10	36.8 ± 0.2	–	–	–	–	–	–	–
CC1(C)CCC[C@]2(C)[C@@H](CC(=O)NCc3ccco3)[C@](C)(O)CC[C@@H]12 [Compound 14, N-(furan-2-ylmethyl)-2-((1R,2R,4aS,8aS)-2-hydroxy-2,5,5,8a-tetramethyldecahydronaphthalen-1-yl)acetamide]	53.5 ± 1.8	<10	25.2 ± 2.0	> 100	very weak antagonist properties	–	–	–	–	–
CC1(C)CCC[C@]2(C)[C@@H](CC(=O)NCc3ccc(-c4ccccc4)cc3)[C@](C)(O)CC[C@@H]12 [Compound 15, N-((1,1′-biphenyl)-4-ylmethyl)-2-((1R,2R,4aS,8aS)-2-hydroxy-2,5,5,8a-tetramethyldecahydronaphthalen-1-yl)acetamide]	> 100	<10	–	> 100	completely devoid of activity	–	–	–	–	–
CC1(C)CCC[C@]2(C)[C@@H](CC(=O)NCCCn3ccnc3)[C@](C)(O)CC[C@@H]12 [Compound 16, N-(3-(1H-imidazol-1-yl)propyl)-2-((1R,2R,4aS,8aS)-2-hydroxy-2,5,5,8a-tetramethyldecahydronaphthalen-1-yl)acetamide]	> 100	<10	–	> 100	complete loss of activity	–	–	–	–	–
CC1(C)CCC[C@]2(C)[C@@H](CC(=O)OCc3ccc(Cl)c(Cl)c3)[C@](C)(O)CC[C@@H]12 [Compound 19, 3,4-dichlorobenzyl 2-((1R,2R,4aS,8aS)-2-hydroxy-2,5,5,8a-tetramethyldecahydronaphthalen-1-yl)acetate]	> 100	<10	17.5 ± 2.7	> 100	completely devoid of activity	–	–	–	–	–
COC(=O)CC1C(C)(O)CCC2C(C)(C)CCCC21C (stereo not drawn) [Compound 20]	> 100	<10	–	> 100	inactive	–	–	–	inactive	–
CC1(C)CCCC2(C)C1CCC(C)(O)C2CCO (stereo not drawn) [Compound 21]	> 100	<10	–	> 100	unable to modulate either channel; also recorded: inactive	–	–	–	unable to modulate either channel	–
CC1(C)CCC[C@]2(C)[C@@H](CCOC(=O)c3ccc4c(c3)OCO4)[C@](C)(O)CC[C@@H]12 [Compound 22, 2-((1R,2R,4aS,8aS)-2-Hydroxy-2,5,5,8a-tetramethyldecahydronaphthalen-1-yl)ethyl Benzo[d][1,3]dioxole-5-carboxylate]	–	<10	–	> 100	–	–	–	155 to 156	–	–
CC1(C)CCC[C@]2(C)[C@@H](CCOC(=O)CCCc3cccs3)[C@](C)(O)CC[C@@H]12 [Compound 24, 2-((1R,2R,4aS,8aS)-2-hydroxy-2,5,5,8a-tetramethyldecahydronaphthalen-1-yl)ethyl 4-(thiophen-2-yl)butanoate]	> 100	<10	–	> 100	–	–	–	–	–	–
CC1(C)CCC[C@]2(C)[C@@H](CCOCc3cccc(Cl)c3)[C@](C)(O)CC[C@@H]12 [Compound 25, (1R,2R,4aS,8aS)-1-(2-((3-Chlorobenzyl)oxy)ethyl)-2,5,5,8a-tetramethyldecahydronaphthalen-2-ol]	> 100	<10	–	> 100	inactive	–	–	–	inactive	–
CC(C)C[C@H](NC(=O)c1cc2ccccc2s1)C(=O)N1CCN(C(=O)[C@H](CO)NS(=O)(=O)c2ccc(Cl)cc2Cl)CC1 [GSK1016790A, N-((1S)-1-{[4-((2S)-2-{[(2,4-dichlorophenyl)sulfonyl]amino} -3-hydroxypropanoyl)-1-piperazinyl]carbonyl}-3-methylbutyl)-1-benzothiophene-2-carboxamide, reference compound]	–	–	–	–	–	–	–	–	–	3.5
CC1(C)CCC[C@]2(C)[C@H]3CC(=O)O[C@]3(C)CC[C@@H]12 [Scd, (+)-Sclareolide, reference compound]	> 100	11.3 ± 0.7	12.6 ± 0.5	> 100	unable to modulate either channel; also recorded: inactive	> 10000	–	–	unable to modulate either channel	–

Further molecules by falling IC50 (rTRPV4), results first:

IC50 (rTRPV4) [µM]	Efficacy % (rTRPV4) [%]	Efficacy % (hTRPV1) [%]	IC50 (hTRPV1) [µM]	activity on rTRPV4 in words (rTRPV4)	EC50 (rTRPV4; [1]) [nM]	EC50 (hTRPV1) [µM]	melting point [°C]	activity on hTRPV1 in words (hTRPV1)	Compound	EC50 (rTRPV4) [nM]
29.7 ± 0.7	<10	19.7 ± 1.1	> 100	–	–	–	–	–	COc1ccc(CNC(=O)C[C@@H]2[C@@]3(C)CCCC(C)(C)[C@@H]3CC[C@@]2(C)O)cc1 [Compound 8, 2-((1R,2R,4aS,8aS)-2-hydroxy-2,5,5,8a-tetramethyldecahydronaphthalen-1-yl)-N-(4-methoxybenzyl)acetamide]	–
18.1 ± 0.2	<10	–	> 100	–	–	–	–	–	COc1cccc(CNC(=O)C[C@@H]2[C@@]3(C)CCCC(C)(C)[C@@H]3CC[C@@]2(C)O)c1 [Compound 9, 2-((1R,2R,4aS,8aS)-2-hydroxy-2,5,5,8a-tetramethyldecahydronaphthalen-1-yl)-N-(3 methoxybenzyl)acetamide]	–
16.9 ± 0.8	15.8 ± 0.8	24.5± 0.2	> 50	–	13400 ± 2600	9.9 ± 0.1	135 to 136	–	CC1(C)CCC[C@]2(C)[C@@H](CC(=O)NCc3ccc(F)cc3)[C@](C)(O)CC[C@@H]12 [Compound 7, N-(4-fluorobenzyl)-2-((1R,2R,4aS,8aS)-2-hydroxy-2,5,5,8a-tetramethyldecahydronaphthalen-1-yl)acetamide]	–
15.6 ± 0.3	<10	–	–	–	–	–	–	–	CC1(C)CCC[C@]2(C)[C@@H](CC(=O)NCCc3ccccc3)[C@](C)(O)CC[C@@H]12 [Compound 10, 2-((1R,2R,4aS,8aS)-2-hydroxy-2,5,5,8a-tetramethyldecahydronaphthalen-1-yl)-N-phenethylacetamide]	–
11.9 ± 0.4	<10	20.8 ± 1.6	> 50	–	–	–	–	–	CC1(C)CCC[C@]2(C)[C@@H](CC(=O)NCCc3cccc(F)c3)[C@](C)(O)CC[C@@H]12 [Compound 13, N-(3-fluorophenethyl)-2-((1R,2R,4aS,8aS)-2-hydroxy-2,5,5,8a-tetramethyldecahydronaphthalen-1-yl)acetamide]	–
11.4 ± 0.1	<10	–	> 100	–	–	–	–	–	CC1(C)CCC[C@]2(C)[C@@H](CC(=O)NCCc3ccc(F)cc3)[C@](C)(O)CC[C@@H]12 [Compound 12, N-(4-fluorophenethyl)-2-((1R,2R,4aS,8aS)-2-hydroxy-2,5,5,8a-tetramethyldecahydronaphthalen-1-yl)acetamide]	–
7.7 ± 0.3	<10	–	> 100	–	–	–	–	–	CC1(C)CCC[C@]2(C)[C@@H](CC(=O)NCc3ccc(Cl)cc3)[C@](C)(O)CC[C@@H]12 [Compound 5, N-(4-chlorobenzyl)-2-((1R,2R,4aS,8aS)-2-hydroxy-2,5,5,8a-tetramethyldecahydronaphthalen-1-yl)acetamide]	–
7 ± 0.1	<10	–	> 100	–	–	–	–	–	CC1(C)CCC[C@]2(C)[C@@H](CC(=O)NCCc3ccc(Cl)cc3)[C@](C)(O)CC[C@@H]12 [Compound 11, N-(4-chlorophenethyl)-2-((1R,2R,4aS,8aS)-2-hydroxy-2,5,5,8a-tetramethyldecahydronaphthalen-1-yl)acetamide]	–
6 ± 0.1	14.6 ± 1.5	32.0 ± 1.2	> 100	good rTRPV4 agonist	1100 ± 1000	4.7 ± 0.4	–	–	CC1(C)CCC[C@]2(C)[C@@H](CC(=O)Nc3ccccc3-n3cccc3)[C@](C)(O)CC[C@@H]12 [Compound 3, N-(2-(1H-pyrrol-1-yl)phenyl)-2-((1R,2R,4aS,8aS)-2-hydroxy-2,5,5,8a-tetramethyldecahydronaphthalen-1-yl)acetamide]	–
